Patent US12162840B2, “Herbicidal compositions” (SYNGENTA PARTICIPATIONS AG, priority 2018, dated 2024)

Assays:
Experiment in all cases: B1 Post-emergence efficacy Test 1
Format in all cases: in vivo
Conditions in all cases: post-emergence application, 1000 g/ha, evaluated after 13 days
[1] = test system: Amaranthus retoflexus (AMARE)
Description: (§1) Seeds of a variety of test species are sown in standard soil in pots:—Solanum nigrum (SOLNI), Amaranthus retoflexus (AMARE), Setaria faberi (SETFA), Alopecurus myosuroides (ALOMY), Echinochloa crus-galli (ECHCG), Ipomoea hederacea (IPOHE), Lolium perenne (LOLPE). After 8 days cultivation (post-emergence) under controlled conditions in a glasshouse (at 24/16° C., day/night; 14 hours light; 65% humidity), the plants are sprayed with an aqueous spray solution derived from the formulation of the technical active ingredient in acetone/water (50:50) solution containing 0.5% Tween 20 (polyoxyethylene sorbitan monolaurate, CAS RN 9005-64-5). Compounds are applied at 1000 g/ha. The test plants are then grown in a glasshouse under controlled conditions in a glasshouse (at 24/16° C., day/night; 14 hours light; 65% humidity) and watered twice daily. After 13 days, the test is evaluated for the percentage damage caused to the plant. The biological activities are assessed on a five point scale (5=80-100%; 4=60-79%; 3=40-59%; 2=20-39%; 1=0-19%). A blank value in the table is indicative that the compound was not tested on that species.

[2] = test system: Echinochloa crus-galli (ECHCG)
Description: as §1

[3] = test system: Ipomoea hederacea (IPOHE)
Description: as §1

Lolium perenne (LOLPE) = test system: Lolium perenne (LOLPE)
Description: as §1

Setaria faberi (SETFA) = test system: Setaria faberi (SETFA)
Description: as §1

Solanum nigrum (SOLNI) = test system: Solanum nigrum (SOLNI)
Description: as §1

SMILES | percentage damage caused to the plant, five point scale, AMARE [1] | percentage damage caused to the plant, five point scale, ECHCG [2] | percentage damage caused to the plant, five point scale, IPOHE [3] | percentage damage caused to the plant, five point scale, LOLPE (Lolium perenne (LOLPE)) | percentage damage caused to the plant, five point scale, SETFA (Setaria faberi (SETFA)) | percentage damage caused to the plant, five point scale, SOLNI (Solanum nigrum (SOLNI))
Cc1nn(C)c(=O)c(-c2c(F)ccc(Cl)c2CCc2ccccc2)c1O [Compound 1.001] | 5 (5=80-100%) | 5 (5=80-100%) | 5 (5=80-100%) | 5 (5=80-100%) | 5 (5=80-100%) | 5 (5=80-100%)
Cc1nn(C)c(=O)c(-c2c(F)ccc(Cl)c2/C=C/c2ccccc2)c1O [Compound 1.002] | 4 (4=60-79%) | 4 (4=60-79%) | 5 (5=80-100%) | 4 (4=60-79%) | 3 (3=40-59%) | 5 (5=80-100%)
Cc1nn(C)c(=O)c(-c2c(F)ccc(Cl)c2CCc2ccc(Cl)cc2)c1O [Compound 1.012] | 5 (5=80-100%) | 5 (5=80-100%) | 5 (5=80-100%) | 5 (5=80-100%) | 5 (5=80-100%) | 5 (5=80-100%)
Cc1nn(C)c(=O)c(-c2c(F)ccc(Cl)c2CCc2ccc(C(F)(F)F)cc2)c1O [Compound 1.018] | 5 (5=80-100%) | 5 (5=80-100%) | 5 (5=80-100%) | 5 (5=80-100%) | 5 (5=80-100%) | 5 (5=80-100%)
Cc1nn(C)c(=O)c(-c2c(F)ccc(Cl)c2CCc2cccnc2)c1O [Compound 1.054] | 5 (5=80-100%) | 5 (5=80-100%) | 5 (5=80-100%) | 5 (5=80-100%) | 5 (5=80-100%) | 5 (5=80-100%)
Cc1nn(C)c(=O)c(-c2c(F)ccc(Cl)c2CCc2ccc(F)c(F)c2)c1O [Compound 1.060] | 5 (5=80-100%) | 5 (5=80-100%) | 5 (5=80-100%) | 5 (5=80-100%) | 5 (5=80-100%) | 5 (5=80-100%)
Cc1nn(C)c(=O)c(-c2c(F)ccc(Cl)c2CCc2ccc(C(F)(F)F)cc2)c1OC(=O)C(C)C [Compound 1.095] | 5 (5=80-100%) | 5 (5=80-100%) | 5 (5=80-100%) | 5 (5=80-100%) |  | 5 (5=80-100%)
Cc1ccc(CCc2c(Cl)ccc(F)c2-c2c(OC(=O)C(C)C)c(C)nn(C)c2=O)cc1 [Compound 1.149] | 5 (5=80-100%) | 5 (5=80-100%) | 5 (5=80-100%) | 5 (5=80-100%) | 5 (5=80-100%) | 5 (5=80-100%)
